Ends that are not written are not given here.
Columns and labels:
561 antibody [1] = assay: Chemical reagents as enhancers of peptide-dependant release of CD34+ cells from the 561 antibody (FACS assay); assay type: cell-based
Procedure: The ability of chemical reagents to enhance peptide-dependant release of captured CD34+ cells from the 561 antibody was examined. […] Previous studies indicated a requirement for low pH (about pH4) for effective cell release. Since long-term viability of the low pH-released cells was not known, conditions which could alter the pH to a more neutral value (about pH5-7) were desirable. Reagents which were known to affect electrostatic and hydrogen bonding interactions of proteins were tested in addition to excluded-volume polymers.

561 antibody [2] = assay: KG1a or tHL60 cell-based FACS assay: release of prebound 561 antibody; details: for functional release activity: crude peptide
Procedure: Five peptides representing hexapeptides selected from biopannings were synthesized and tested for their ability to serve as release agents in the KG1a or tHL60 cell-based FACS assay.
HPLC-purified peptides 561C and D were tested in the cell-based KG1a FACS assay.
Functional release activity of purified 561D peptide at pH 4 and 6 was tested.
Functional release activity of purified 561C and 561D peptides at pH 4, 5, 6, 7, 8, and 9 was tested.
Functional release activity of crude 561A,B,C,D, M, P, Q, CDR2H, CDR2L, CDR3H, CDR3L, 34B, 34C,34D,34E and 34F peptides adjusted to pH 7 and pH unadjusted (^~ pH3.8-4.3) was tested.

anti-CD34 antibody, 9069 = assay: KG1a cell FACS assay: release by peptides of 9069 antibody bound to cells; assay type: cell-based, mouse
Procedure: These experiments were performed following a similar procedure to the binding experiments except that the anti-CD34 antibody, 9069, was incubated with KG1a cells first, followed by addition of peptide. The experimental outline is schematically shown below:
Anti-CD34 antibody, 9069 (0.1 microgram) was incubated with KG1a cells (10^6) for 30 minutes at room temperature (about 22° C.). Molar excesses of 10^5 to 10^6 times the amount of peptide to antibody were tested for the ability to displace the prebound antibody. Peptides were incubated with the antibody-cell complexes for 30 minutes at room temperature (approximately 22° C.). Remaining bound antibody was detected using the FITC-goat anti-mouse IgG reagent described in Example 3.
Analysis of the variant peptide, 9069Q2, was done in parallel with the 9069N peptide. This analysis provides quality control information on reagents including the antibody, 9069, and the cells, KG1a. FACScan assays included a negative control of KG1a cells alone and positive control samples of KG1a cells with the 9069 antibody bound and detected with a secondary antibody, goat-anti-mouse IgG-FITC.

9069 antibody = assay: Stem cell selection with 9069 antibody and sheep-anti-mouse beads, release by peptide or chymopapain; assay type: cell-based; details: chymopapain release
CD34+ cells = assay: CD34+ cell isolation from mobilized peripheral blood on automated cell separation apparatus; assay type: cell-based, human; details: 25 mg of peptide 9069N or chymopapain control
Procedure: CD34+ cells were also isolated from human mobilized peripheral blood using the automated cell separation apparatus of co-pending U.S. patent application Ser. No. 08/212,479, and the method essentially as described in co-pending U.S. patent application Ser. No. 08/212,616. Both Ser. No. 08/212,479 and Ser. No. 08/212,616 are herein expressly incorporated by reference. Chymopapain was used as the control releasing agent, and 25 mg of the peptide 9069N (Table 11) was used as the test releasing agent.

[3] = system: positively selected CD34+ cells; assay: Culture of positively selected CD34+ cells with cytokines for 12 days; assay type: cell-based, human; details: released cells of first experiment
Procedure: The purity of the positively selected CD34+ cells was greater than 90% for both the chymopapain and peptide released cells. In a first experiment, the peptide release method yielded 14×10^6 cells, while the chymopapain release method yielded 20×10^6 cells. In a second experiment, the peptide release method yielded 19×10^6 cells, while the chymopapain release method yielded 22×10^6 cells. The positively selected CD34+ cells from the first experiment were grown in culture with cytokines for 12 days.

[4] = Solubilization of peptides in DPBS plus 1% HSA; assay type: physicochemical; details: Dulbecco's phosphate buffered saline (DPBS) plus 1% HSA
Procedure: 9079A-G peptides were solubilized in Dulbecco's phosphate buffered saline (DPBS) plus 1% HSA. The 9079A-G peptides were tested in the FACScan assay using 10 6 KG1a cells bound with 0.05 ug of the 9079 antibody.

[5] = Table 7, mobilized peripheral blood (5.86 % CD34)
[6] = Table 8, mobilized peripheral blood (1.05 % CD34)
[7] = Table 9, bone marrow sample (3.66 % CD34)
[8] = Table 10, mobilized peripheral blood (0.68 % CD34)

## [Cl-].[Cl-].[Mg+2] [magnesium chlordie, magnesium chloride]
561 antibody [1]
  enhancement of peptide mediated release of CD34+ selected cells: Less dramatic results

## CC(=O)O [sodium acetate]
561 antibody [1]
  enhancement of peptide mediated release of CD34+ selected cells: significant activity as an enhancement reagent

## A C K W C R (ACKWCR) [561M]
561 antibody [2]; KG1a or tHL60 cells
  release of 561 antibody prebound to KG1a or tHL60 cells: able to release 561 antibody prebound to KG1a or tHL60 cells
561 antibody [2]; pH 7
  functional release activity: none of these peptides showed release activity
561 antibody [2]; pH unadjusted (around pH 3.8-4.3)
  functional release activity: showed functional release activity
561 antibody [2]; low pH (~4)
  release activity: showed significant release activity
561 antibody [2]; pH 6 or pH 7
  release activity: did not show release activity

## ADGA-NGGYFP-GAKD [9069H']
anti-CD34 antibody, 9069; Table 11, 9069 prebound to KG1a cells
  Competition %: 75%
anti-CD34 antibody, 9069; Table 13, yes/no
  release activity: yes

## Chymopapain
9069 antibody; [5]
  % CD34 CELLS Negative Fraction: 2.5%
  % CD34 CELLS Positive Fraction: 94%
  % Capture: 62%
  % Yield: 65.9%
9069 antibody; [6]
  % CD34 CELLS Negative Fraction: 0.16%
  % CD34 CELLS Positive Fraction: 90.1%
  % Capture: 86.9%
  % Yield: 73.4%
9069 antibody; [7]
  % CD34 CELLS Negative Fraction: 0.34%
  % CD34 CELLS Positive Fraction: 92.1%
  % Capture: 91.8%
  % Yield: 79.9%
9069 antibody; [8]
  % CD34 CELLS Negative Fraction: 0.12%
  % CD34 CELLS Positive Fraction: 79.73%
  % Capture: 86.7%
  % Yield: 68%
CD34+ cells; first experiment
  cells yielded by release method: 20×10^6 cells
CD34+ cells; mobilized peripheral blood
  purity of the positively selected CD34+ cells: greater than 90%
CD34+ cells; second experiment
  cells yielded by release method: 22×10^6 cells
[3]
  expansion in cell number: 68 fold

## IQEFGVKD [9079F, IQEFGV-KD]
[4]
  solubility: solubilized

## KDVYSLWPKD [9079H, KD-VYSLWP-KD]
[4]
  solubility: solubilized

## NLQGEFKD [9079D, NLQGEF-KD]
[4]
  solubility: solubilized

## PGSPLGKD [9079A, PGSPLG-KD]
[4]
  solubility: solubilized

## QYTQPKD [9079C, QYTQPK-D]
[4]
  solubility: solubilized

## RSFYYRD [9079E, RSFYYR-D]
[4]
  solubility: insoluble

## YSRLGFKD [9079B, YSRLGF-KD]
[4]
  solubility: solubilized

— patent US5968753A, “Positive and positive/negative cell selection mediated by peptide release” (Nexell Therapeutics, Inc., priority 1995, dated 1999)
